Experimental data from PMC7340583, “The yeast cell wall protein Pry3 inhibits mating through highly conserved residues within the CAP domain” (Biology Open, 2020).
Residue numbers refer to the chain shown, from its start. Read-outs that look alike come from different tables or passages of the source.

Key:
Test in all cases: radioligand binding, Q-sepharose adsorption, scintillation counting
[1] = target: T1, Pry3 CAP domain (Pry3-CAP) (Saccharomyces cerevisiae, UniProt P47033, P105C/A155C); conditions: labelled compound; 20 mM Tris pH 7.5, 30 mM NaCl, 0.05% Triton X-100, 30°C, 1 h
T1 sequence (P47033 18-161 P105C/A155C): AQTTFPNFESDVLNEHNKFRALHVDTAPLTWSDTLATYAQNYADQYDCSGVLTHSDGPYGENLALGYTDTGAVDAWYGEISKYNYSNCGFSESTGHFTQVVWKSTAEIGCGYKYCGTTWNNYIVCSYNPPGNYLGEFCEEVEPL

Pry1 CAP domain = target: T2, Pry1 CAP domain (Saccharomyces cerevisiae, UniProt P47032)
T2 sequence (P47032 20-299 limits assumed): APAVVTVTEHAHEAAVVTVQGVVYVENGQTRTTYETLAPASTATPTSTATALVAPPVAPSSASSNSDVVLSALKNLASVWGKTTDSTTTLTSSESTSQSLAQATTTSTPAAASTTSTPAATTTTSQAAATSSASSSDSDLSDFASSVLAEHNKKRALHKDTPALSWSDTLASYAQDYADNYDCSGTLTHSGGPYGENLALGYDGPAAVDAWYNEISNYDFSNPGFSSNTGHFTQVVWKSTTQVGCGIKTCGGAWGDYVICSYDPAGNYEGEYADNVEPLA
Excerpt: radioligand binding, Q-sepharose adsorption, scintillation counting on Pry1 CAP domain | Polyhistidine-tagged versions of the CAP domain of Pry1, Pry3 and mutant versions of Pry3 | The affinity of Pry3 to palmitic acid is thus similar to that of Pry1

[2] = target: T3, Pry3 CAP domain (Pry3-CAP) (Saccharomyces cerevisiae, UniProt P47033, C142S); conditions: labelled compound; 20 mM Tris pH 7.5, 30 mM NaCl, 0.05% Triton X-100, 30°C, 1 h
T3 sequence (P47033 18-161 C142S): T1 sequence (P47033 18-161 P105C/A155C) with C88P, C125S, C138A

[3] = target: T4, Pry3 CAP domain (Pry3-CAP) (Saccharomyces cerevisiae, UniProt P47033)
T4 sequence (P47033 18-161): T1 sequence (P47033 18-161 P105C/A155C) with C88P, C138A

[4] = target: T5, Pry3 CAP domain (Pry3-CAP) (Saccharomyces cerevisiae, UniProt P47033, V117M); conditions: labelled compound; 20 mM Tris pH 7.5, 30 mM NaCl, 0.05% Triton X-100, 30°C, 1 h
T5 sequence (P47033 18-161 V117M): T1 sequence (P47033 18-161 P105C/A155C) with C88P, V100M, C138A

SMILES	radioligand binding, Q-sepharose adsorption, scintillation counting [1]	Kd (Pry1 CAP domain; labelled compound, 20 mM Tris pH 7.5, 30 mM NaCl, 0.05% Triton X-100, 30°C, 1 h) [µM]	radioligand binding, Q-sepharose adsorption, scintillation counting [2]	Kd [3] [µM]	radioligand binding, Q-sepharose adsorption, scintillation counting [4]	Kd (Pry1 CAP domain) [µM]
CC(C)CCC[C@@H](C)[C@H]1CC[C@H]2[C@@H]3CC=C4C[C@@H](O)CC[C@]4(C)[C@H]3CC[C@]12C [cholesterol]	decreased sterol-binding of Pry3-CAP^P105C, A155C to background levels	1.88	as present in Pry3-CAP^C142S, disrupted sterol binding in vitro	13.1	–	–
CCCCCCCCCCCCCCCC(=O)O [palmitic acid]	–	–	–	114	Pry3^V117M failed to efficiently bind palmitic acid in vitro	111
